From patent US12559474B2, “Triazine derivatives having virus replication inhibitory activity and pharmaceutical composition comprising the same” (priority 2021, dated 2026)
Like-named read-outs stand apart in the source and are kept apart here.

Assays:
SARS-CoV-2 3CL protease = SARS-CoV-2 3CL protease (Severe acute respiratory syndrome coronavirus 2, UniProt P0DTD1); test: biochemical; details: 50% SARS-CoV-2 3CL protease inhibitory concentration, read-out: IC50
SARS-CoV-2 = test: microbe, parasite or virus in culture; format: cell-based; details: Severe acute respiratory syndrome coronavirus 2, VeroE6/TMPRSS2, 72 h, 50% SARS-CoV-2 infected cell death inhibitory concentration, VeroE6/TMPRSS2 cells, 3 days culture

SMILES | IC50 (SARS-CoV-2 3CL protease; given as class symbols) [nM] | EC50 (SARS-CoV-2; class symbols) [nM] | IC50 (SARS-CoV-2 3CL protease; RapidFire MS) [nM] | EC50 (SARS-CoV-2; CellTiter-Glo 2.0) [nM]
Cn1cc2cc(Nc3nc(=O)n(Cc4cc(Cl)c[nH]c4=O)c(=O)n3Cc3ccc(F)c(C#N)c3)c(Cl)cc2n1 [Compound I-0359] | < 100 | 1000 to 10000 | – | –
Cn1cc2cc(Nc3nc(=O)n(-c4cncc5c4COC5)c(=O)n3Cc3cc(F)c(F)c(F)c3)c(Cl)cc2n1 [II-0503] | < 100 | 1000 to 10000 | – | –
O=c1[nH]cccc1Cn1c(=O)nc(Nc2cc3c(cc2Cl)OCCC3)n(Cc2cc(F)c(F)c(F)c2)c1=O [Compound I-0372] | < 100 | < 1000 | – | –
O=c1[nH]cc(Cl)cc1Cn1c(=O)nc(Nc2cc3cn(CCO)nc3cc2Cl)n(Cc2cc(F)c(F)c(F)c2)c1=O [Compound I-0079] | < 100 | 1000 to 10000 | – | –
Cn1cnc(Cn2c(=O)nc(Nc3cc4cn(CCO)nc4cc3Cl)n(Cc3cc(F)c(F)c(F)c3)c2=O)n1 [Compound I-0432] | < 100 | 1000 to 10000 | – | –
Cc1cncc(-n2c(=O)nc(Nc3cc4cn(C)nc4cc3Cl)n(Cc3ccc(F)c(F)c3)c2=O)c1 [II-0028] | < 100 | < 1000 | – | –
Cc1cncc(-n2c(=O)nc(Nc3cc4cn(C)nc4cc3Cl)n(Cc3cc(F)cc(F)c3)c2=O)c1 [II-0201] | < 100 | < 1000 | – | –
Cn1cnc(Cn2c(=O)nc(Nc3cc4cn(CC(C)(C)O)nc4cc3Cl)n(Cc3cc(Cl)c(F)cc3F)c2=O)n1 [II-0302] | < 100 | 1000 to 10000 | – | –
CC(C)Nc1nc2cc(Cl)c(Nc3nc(=O)n(Cc4ncn(C)n4)c(=O)n3Cc3cc(F)c(F)cc3F)cc2s1 [II-0037] | < 100 | 1000 to 10000 | – | –
COc1ccc(Nc2nc(=O)n(Cc3cc4ccccc4[nH]c3=O)c(=O)n2Cc2cc(F)c(F)c(F)c2)cc1 [Compound I-0306] | < 100 | 1000 to 10000 | – | –
O=c1nc(Nc2cc3cn(CCO)nc3cc2Cl)n(Cc2cc(F)c(F)c(Cl)c2)c(=O)n1Cc1ncccn1 [II-0294] | < 100 | 1000 to 10000 | – | –
O=c1nc(Nc2cc3cn(CCN4CCOCC4)nc3cc2Cl)n(Cc2cc(F)c(F)cc2F)c(=O)n1-c1cncc2ccccc12 [II-0078] | < 100 | < 1000 | – | –
Cc1cncc(-n2c(=O)nc(Nc3ccc4nn(C)cc4c3)n(Cc3cc(C#N)ccc3Cl)c2=O)c1 [II-0422] | – | – | 6.4 | 290
Cc1nc2cc(Cl)c(Nc3nc(=O)n(Cc4ccc[nH]c4=O)c(=O)n3Cc3cc(F)c(F)c(F)c3)cc2o1 [Compound I-0459] | < 100 | 1000 to 10000 | – | –
O=c1[nH]cccc1Cn1c(=O)nc(-c2ccccc2)n(Cc2cc(F)c(F)c(F)c2)c1=O [Compound I-0329] | – | – | 2000 | 5100
C=Cc1cc(Cn2c(Nc3cc4cn(C)nc4cc3Cl)nc(=O)n(-c3cncc(C)c3)c2=O)ccc1F [II-0587] | < 100 | < 1000 | – | –
COc1ccc(Nc2nc(=O)n(Cc3cc4sccc4[nH]c3=O)c(=O)n2Cc2cc(F)c(F)c(F)c2)cc1 [II-0342] | < 100 | 1000 to 10000 | – | –
C/C=C/c1cc(F)c(F)cc1Cn1c(Nc2cc3cn(C)nc3cc2Cl)nc(=O)n(-c2cncc(C)c2)c1=O [II-0066] | < 100 | 1000 to 10000 | – | –
CNC(=O)Cn1cc2cc(Nc3nc(=O)n(Cc4ccc[nH]c4=O)c(=O)n3Cc3cc(F)c(F)c(F)c3)c(Cl)cc2n1 [Compound I-0368] | < 100 | 1000 to 10000 | – | –

SMILES | IC50 (SARS-CoV-2 3CL protease; given as class symbols) [nM] | EC50 (SARS-CoV-2; class symbols) [nM] | IC50 (SARS-CoV-2 3CL protease; RapidFire MS) [nM] | EC50 (SARS-CoV-2; CellTiter-Glo 2.0) [nM]
COc1ccc(Nc2nc(=O)n(-c3cccnc3)c(=O)n2Cc2cc(F)c(F)c(F)c2)cc1 [Compound I-0135] | 100 to 1000 | 1000 to 10000 | – | –
Cc1cncc(-n2c(=O)nc(Nc3cc4c(cc3C)OCC4)n(Cc3cc(F)c(F)c(F)c3)c2=O)c1 [II-0219] | < 100 | 1000 to 10000 | – | –
O=c1nc(Nc2cc3c(cc2Cl)OCC3)n(Cc2cc(F)c(F)c(F)c2)c(=O)n1-c1cncc2ccccc12 [II-0049] | < 100 | < 1000 | – | –
COc1ccc(Nc2nc(=O)n(Cc3c[nH]c(=O)[nH]c3=O)c(=O)n2Cc2cc(F)c(F)c(F)c2)c(Cl)c1 [Compound I-0404] | < 100 | 1000 to 10000 | – | –
CNc1nc2cc(Cl)c(Nc3nc(=O)n(-c4cncc(C)c4)c(=O)n3Cc3cc(C#N)ccc3Cl)cc2o1 [II-0545] | – | – | 8.6 | 750
CCn1cc2cc(Nc3nc(=O)n(-c4cncc(C)c4)c(=O)n3Cc3ccc(F)c(C#N)c3)ccc2n1 [II-0010] | – | – | 19 | 940
Cn1cnc(Cn2c(=O)nc(Nc3cc4cn(C)nc4cc3Cl)n(Cc3cc(F)cc(Cl)c3)c2=O)n1 [II-0051] | < 100 | 1000 to 10000 | – | –
Cn1cnc(Cn2c(=O)nc(Nc3cc4cn(CC(F)F)nc4cc3F)n(Cc3cc(F)c(F)c(Cl)c3)c2=O)n1 [II-0466] | < 100 | 1000 to 10000 | – | –
Cn1cc2cc(Nc3nc(=O)n(Cc4ccc[nH]c4=O)c(=O)n3Cc3ccc(F)c(C#N)c3)c(Cl)cc2n1 [Compound I-0267] | < 100 | 1000 to 10000 | – | –
Cn1cc2cc(Nc3nc(=O)n(-c4cncc(C#N)c4)c(=O)n3Cc3ccc(F)c(C#N)c3)ccc2n1 [II-0389] | – | – | 45 | 4400
CC(=O)Nc1nc2cc(F)c(Nc3nc(=O)n(-c4cncc(C)c4)c(=O)n3Cc3ccc(F)c(C#N)c3)cc2s1 [II-0011] | < 100 | 1000 to 10000 | – | –
O=c1[nH]cccc1Cn1c(=O)nc(Nc2cc3cn(C4CC(F)(F)C4)nc3cc2Cl)n(Cc2cc(F)c(F)c(F)c2)c1=O [Compound I-0470] | < 100 | 1000 to 10000 | – | –
CC(=O)NCCn1cc2cc(Nc3nc(=O)n(-c4cncc5ccccc45)c(=O)n3Cc3cc(F)c(F)c(F)c3)c(Cl)cc2n1 [Compound I-0471] | < 100 | 1000 to 10000 | – | –
N#Cc1cc(Cn2c(Nc3ccc4c(c3)CCCO4)nc(=O)n(-c3cncc4ccccc34)c2=O)ccc1F [II-0159] | < 100 | < 1000 | – | –
Cn1cc2cc(Nc3nc(=O)n(-c4cncc(C#N)c4)c(=O)n3Cc3cc(F)c(F)c(F)c3)c(Cl)cc2n1 [II-0491] | < 100 | 1000 to 10000 | – | –
Cc1cncc(-n2c(=O)nc(Nc3cc4sc(C)nc4cc3F)n(Cc3ccc(F)c(C#N)c3)c2=O)c1 [II-0416] | < 100 | 1000 to 10000 | – | –
Cc1cncc(-n2c(=O)nc(Nc3ccc4nn(C)cc4c3)n(Cc3ccc(F)c(Cl)c3)c2=O)c1 [II-0469] | < 100 | < 1000 | – | –
Cc1cncc(-n2c(=O)nc(Nc3ccc4nn(C)cc4c3)n(Cc3cc(F)c(F)c(C#N)c3)c2=O)c1 [II-0573] | – | – | 6.1 | 340
Cc1cncc(-n2c(=O)nc(Nc3cc4cn(CC(F)F)nc4cc3Cl)n(Cc3ccc(F)c(C#N)c3)c2=O)c1 [II-0089] | – | – | 3.6 | 182

SMILES | IC50 (SARS-CoV-2 3CL protease; given as class symbols) [nM] | EC50 (SARS-CoV-2; class symbols) [nM] | IC50 (SARS-CoV-2 3CL protease; RapidFire MS) [nM] | EC50 (SARS-CoV-2; CellTiter-Glo 2.0) [nM]
Cc1cncc(-n2c(=O)nc(Nc3cc4cn(C)nc4cc3Cl)n(Cc3cc(F)c(F)cc3OCC(F)(F)F)c2=O)c1 [II-0435] | < 100 | 1000 to 10000 | – | –
O=c1nc(Nc2ccc3nn(CC(F)F)cc3c2)n(Cc2cc(F)c(F)c(F)c2)c(=O)n1-c1cncc2ccccc12 [Compound I-0472] | < 100 | < 1000 | – | –
Cc1cncc(-n2c(=O)nc(Nc3cc4cn(C)nc4cc3C)n(Cc3ccc(F)c(C#N)c3)c2=O)c1 [Compound I-0385] | < 100 | < 1000 | – | –
N#Cc1cc(Cn2c(Nc3cc4cn(CC(F)F)nc4cc3F)nc(=O)n(-c3cncc(Cl)c3)c2=O)ccc1F [II-0513] | < 100 | < 1000 | – | –
Cc1cncc(-n2c(=O)nc(Nc3ccc4c(c3)CCO4)n(Cc3ccc(F)c(C#N)c3)c2=O)c1 [Compound I-0354] | – | – | 5 | 107
Cc1nc2cc(Nc3nc(=O)n(Cc4ccc[nH]c4=O)c(=O)n3Cc3cc(F)c(F)c(F)c3)c(Cl)cc2o1 [Compound I-0461] | < 100 | 1000 to 10000 | – | –
CNc1nc2cc(Cl)c(Nc3nc(=O)n(-c4cncc(C)c4)c(=O)n3Cc3ccc(F)c(C#N)c3)cc2n1C [II-0414] | < 100 | 1000 to 10000 | – | –
CNc1nc2ccc(Nc3nc(=O)n(Cc4ccc[nH]c4=O)c(=O)n3Cc3cc(F)c(F)c(F)c3)cc2s1 [Compound I-0460] | < 100 | 1000 to 10000 | – | –
Cn1cc2cc(Nc3nc(=O)n(-c4cncc5ccccc45)c(=O)n3Cc3cc(F)c(F)c(F)c3)c(Cl)cc2n1 [Compound I-0378] | < 100 | < 1000 | – | –
Cn1cc2cc(Nc3nc(=O)n(-c4cncc5ccccc45)c(=O)n3Cc3ccc(F)c(C#N)c3)ccc2n1 [Compound I-0353] | – | – | 5.4 | 306
C=Cc1cc(F)c(F)cc1Cn1c(Nc2cc3cn(C)nc3cc2Cl)nc(=O)n(-c2cncc(C)c2)c1=O [II-0067] | < 100 | < 1000 | – | –
Cc1cncc(-n2c(=O)nc(Nc3cc4cn(C)nc4cc3Cl)n(Cc3cc(F)c(F)cc3C#N)c2=O)c1 [II-0070] | < 100 | 1000 to 10000 | – | –
Cc1ccc(C#N)cc1Cn1c(Nc2ccc3nn(CC(F)(F)F)cc3c2)nc(=O)n(-c2cncc(Cl)c2)c1=O [II-0304] | – | – | 4.5 | 213
N#Cc1cc(Cn2c(Nc3cc4c(cc3Cl)OCC4)nc(=O)n(Cc3ccc[nH]c3=O)c2=O)ccc1F [Compound I-0013] | < 100 | 1000 to 10000 | – | –
Cn1cnc(Cn2c(=O)nc(Nc3cc4cn(C)nc4cc3Cl)n(Cc3ccc(F)cc3Br)c2=O)n1 [II-0218] | < 100 | 1000 to 10000 | – | –
Cn1cnc(Cn2c(=O)nc(Nc3cc4oc(N)nc4cc3Cl)n(Cc3cc(F)c(F)c(Cl)c3)c2=O)n1 [II-0508] | < 100 | 1000 to 10000 | – | –
Cn1cnc(Cn2c(=O)nc(Nc3cc4cn(C)nc4cc3Cl)n(Cc3cc(F)c(F)cc3Cl)c2=O)n1 [II-0405] | < 100 | < 1000 | – | –
Cn1cc2cc(Nc3nc(=O)n(Cc4ncccn4)c(=O)n3Cc3cc(F)c(F)cc3F)c(Cl)cc2n1 [II-0245] | < 100 | < 1000 | – | –
